Here are results for 20 molecules from patent publication US20070287699A1, “ANTIVIRAL AGENTS” (ViroBay, Inc., priority 2006, published 2007).

In this assay the test system is HCV replicon RNA replication in human Huh7 hepatoma cells. Put plainly: HCV replicon assay (activity levels from either or both of HCV replicon assay 1, Huh7/Clone A RT-qPCR, and assay 2, Huh7 ET luc-ubi-neo/ET). The format is cell-based, Hepatitis C virus (HCV). The conditions noted are these: Hepatitis C virus, Huh-7, either or both HCV replicon assays: Huh7/Clone A, 48 hours, 72 hours, Luc activity or RT-PCR, read-out: inhibit HCV replication at IC50 levels or estimated IC50 levels. The text has this: The HCV replicon assay is a cell-culture system that mimics in vivo HCV replication and provides a system to study HCV replication in vitro. It was created by transfecting cloned viral RNA derived from a consensus HCV genomic sequence into human Huh7 hepatoma cells that are semi-permissive for viral RNA production (Lohmann V., Korner F., Koch J.-O., Herian U., Theilmann L. and Bartenschlager R. (1999). Replication of subgenomic Hepatitis C virus RNAs in a hepatoma cell line. Science 285, 110-113 and Blight K. J., Kolykhalov A. A. and Rice C. M. (2000). Efficient initiation of HCV RNA Replication in cell culture. Science 290, […]). These transfected cell lines contain a subgenomic HCV RNA genome that includes (1) the HCV 5′NTR fused to 12 amino acids of the capsid coding region, (2) the neomycin phosphotransferase gene (Neo) as a selectable marker, (3) the internal ribosome entry site (IRES) from encephalomyocarditis virus (EMCV) that directs translation of HCV non-structural proteins (variously NS2 or NS3 to NS5B), and (4) the 3′ NTR. Replicon-containing cells autonomously and persistently replicate HCV RNA that can be measured quantitatively by real-time qPCR. Therefore, the replicon system facilitates quantitative assessment of anti-viral activity by monitoring changes in HCV RNA replication in a cell-based assay.
HCV replicon-containing cells (Huh7/Clone A) were routinely maintained in Clone A growth medium (DMEM medium [Invitrogen], supplemented with 10% Fetal Bovine Serum, 1% Non Essential Amino Acids and 1 g/L G418). Test compounds were dissolved in dimethyl sulfoxide (DMSO) to make 200× stock solutions for all doses prior to treatment.
For the HCV replicon assay, Huh7/Clone A cells were trypsinized from culture flasks, seeded in 1 ml of Clone A growth medium without G418 at 4×10^4 cells per well in 24-well plates and incubated at 37° C. in a humidified CO2 (5%) incubator overnight. Following overnight incubation, compound solutions were added into wells in the same volume (5 μl of 200× compound stock per well) to give a final DMSO concentration of 0.5%. Three wells on each plate supplemented with 5 μl of DMSO served as untreated controls. For IC50 determinations, compounds were tested at 7 serial dilutions in triplicates from the starting stock solutions. The plates were incubated at 37° C. for 48 hours. After incubation, cells were harvested, transferred to 96-well plates, and subjected to total RNA extraction using the RNA Isolation Kit (RNeasy 96, Qiagen) according to the protocol described by the manufacture's RNeasy 96 Handbook (Qiagen).
Total RNA eluted in 130 μl of RNase-free dH2O was quantitated by the RiboGreen Assay according to the supplier's protocol (Molecular Probe). Briefly, 5 μl of RNA samples were aliquoted in duplicate to a 96-well black microplate and a 96-well TaqMan Optical plate. RNA samples in the black microplate were mixed with 95 μl of diluted RiboGreen:reagent (1:250 dilution in TE buffer) and sample fluorescence was measured using a fluorescence microplate reader at standard fluorescein wavelengths (excitation ˜480 nm, emission ˜520 nm). Ribosomal RNA (Molecular Probe) was used as standard.
TaqMan quantitative PCR (RT-qPCR) was used to quantitate the amount of HCV replicon RNA in each sample. The RT-qPCR reactions were performed in 25 μl on an ABI PRISM 7900 HT Sequence Detection System (Applied Biosystems). The reaction mixture contained 5 μl of total RNA (10-100 ng), 1× TaqMan Buffer A (Applied Biosystems), 5.5 mM MgCl2, 1.2 mM dNTP mix, 0.625 U of AmpliTaq Gold (Applied Biosystems), 5 U of MMLV reverse transcriptase (Promega), 5 U of rRNasin (Promega), 300 nM each of the forward and reverse primers, and 100 nM TaqMan MGB probe. Primers and probe were designed to hybridize to a portion of the neomycin resistance gene (neo) in the replicon and the sequences are as follows: forward primer 5′-GGCTACCTGCCCATTCGA-3′; reverse primer 5′-CCGGCTTCCATCCGAGTAC-3′; MGB probe 5′-CCACCAAGCGAAACA-3′. […]

The term IC50 denotes the concentration needed to halve the response being measured. As for `CC(C)(c1ccccc1)c1nc(-c2cn(Cc3ccc(C(F)(F)F)cc3)c3cc(N4CCOCC4)c(F)cc3c2=O)no1` [Compound 146, 6-fluoro-7-morpholino-3-(5-(2-phenylpropan-2-yl)-1,2,4-oxadiazol-3-yl)-1-(4-(trifluoromethyl)benzyl)quinolin-4(1H)-one], the IC50 was less than 0.5 µM.

As to `CN1CCN(c2cc3c(cc2F)c(=O)c(-c2noc(Cc4ccccc4)n2)cn3Cc2c(F)cccc2Cl)CC1` [Compound 41, 3-(5-benzyl-[1,2,4]oxadiazol-3-yl)-1-(2-chloro-6-fluoro-benzyl)-6-fluoro-7-(4-methyl-piperazin-1-yl)-1H-quinolin-4-one], the 50% inhibitory concentration (IC50) is more than 10 µM.

For `CN1CCN(c2cc3c(cc2F)c(=O)c(-c2noc(Cc4ccc(F)cc4)n2)cn3Cc2ccccc2F)CC1` [Compound 47, 6-fluoro-3-[5-(4-fluoro-benzyl)-[1,2,4]oxadiazol-3-yl]-1-(2-fluoro-benzyl)-7-(4-methyl-piperazin-1-yl)-1H-quinolin-4-one], the IC50 is less than 10 µM.

Regarding `CC(=O)NCCCCC(c1ccccc1)c1nc(-c2cn(Cc3ccc(Cl)cc3)c3cc(N4CCN(C)CC4)c(F)cc3c2=O)no1` (centres unmarked) [Compound 85, N-(5-{3-[1-(4-chloro-benzyl)-6-fluoro-7-(4-methyl-piperazin-1-yl)-4-oxo-1,4-dihydro-quinolin-3-yl]-[1,2,4]oxadiazol-5-yl}-5-phenyl-pentyl)-acetamide], the half-inhibitory concentration (IC50) is less than 2 µM.

Consider `CN(C)c1cc2c(cc1F)c(=O)c(-c1noc(Cc3ccccc3)n1)cn2Cc1ccc(C(F)(F)F)cc1` [Compound 74, 3-(5-benzyl-[1,2,4]oxadiazol-3-yl)-7-dimethylamino-6-fluoro-1-(4-trifluoromethyl-benzyl)-1H-quinolin-4-one], for which the IC50 is less than 2 µM.

On to `COc1cc2c(=O)c(-c3noc(Cc4ccccn4)n3)cn(Cc3ccc(Cl)cc3)c2cc1OC` [Compound 3, 1-(4-chloro-benzyl)-6,7-dimethoxy-3-(5-pyridin-2-ylmethyl-[1,2,4]oxadiazol-3-yl)-1H-quinolin-4-one], for which the IC50 is more than 10 µM.

For the molecule `CN1CCN(c2cc3c(cc2F)c(=O)c(-c2noc(C4(c5ccccc5)CC4)n2)cn3C2(c3ccc(C(F)(F)F)cc3)CC2)CC1` [Compound 90, 6-fluoro-7-(4-methyl-piperazin-1-yl)-3-[5-(1-phenyl-cyclopropyl)-[1,2,4]oxadiazol-3-yl]-1-[1-(4-trifluoromethyl-phenyl)-cyclopropyl]-1H-quinolin-4-one], the IC50 is more than 10 µM.

With `CC(C)(c1ccc(F)cc1)c1nc(-c2cn(Cc3ccc(F)cc3)c3cc(N4CCS(=O)(=O)CC4)c(F)cc3c2=O)no1` [Compound 151, 7-(1,1-dioxo-thiomorpholine)-6-fluoro-3-(5-(2-(4-fluorophenyl)propan-2-yl)-1,2,4-oxadiazol-3-yl)-1-(4-(fluoro)benzyl)quinolin-4(1H)-one], the concentration for half-maximal inhibition (IC50) is less than 10 µM.

Regarding `CN1CCN(c2cc3c(cc2F)c(=O)c(-c2noc(C4(c5ccccc5)CC4)n2)cn3Cc2ccc(C(F)(F)F)cc2F)CC1` [Compound 78, 6-fluoro-1-(2-fluoro-4-trifluoromethyl-benzyl)-7-(4-methyl-piperazin-1-yl)-3-[5-(1-phenyl-cyclopropyl)-[1,2,4]oxadiazol-3-yl]-1H-quinolin-4-one], the IC50 is less than 2 µM.

Turning to `Cc1cn(-c2cc3c(cc2F)c(=O)c(-c2noc(Cc4ccccc4)n2)cn3Cc2ccc(C(F)(F)F)cc2F)cn1` [Compound 57, 3-(5-benzyl-[1,2,4]oxadiazol-3-yl)-6-fluoro-1-(2-fluoro-4-trifluoromethyl-benzyl)-7-(4-methyl-imidazol-1-yl)-1H-quinolin-4-one], the half-inhibitory concentration (IC50) is less than 10 µM.

For `CN1CCN(c2cc3c(cc2F)c(=O)c(-c2noc(C(CCCC(=O)O)c4ccccc4)n2)cn3Cc2ccc(Cl)cc2)CC1` (centres unmarked) [Compound 81, 5-{3-[1-(4-chloro-benzyl)-6-fluoro-7-(4-methyl-piperazin-1-yl)-4-oxo-1,4-dihydro-quinolin-3-yl]-[1,2,4]oxadiazol-5-yl}-5-phenyl-pentanoic acid], the half-inhibitory concentration (IC50) is less than 10 µM.

Take `CN1CCN(c2cc3c(cc2F)c(=O)c(-c2noc(Cc4ccc(F)cc4)n2)cn3Cc2c(F)cccc2Cl)CC1` [Compound 42, 1-(2-chloro-6-fluoro-benzyl)-6-fluoro-3-[5-(4-fluoro-benzyl)-[1,2,4]oxadiazol-3-yl]-7-(4-methyl-piperazin-1-yl)-1H-quinolin-4-one]: the IC50 was less than 10 µM.

Take `CC(C)Cc1nc(-c2cn(CC3CCCCC3)c3cc(N4CCN(C)CC4)c(F)cc3c2=O)no1` [Compound 13, 1-cyclohexylmethyl-6-fluoro-3-(5-isobutyl-[1,2,4]oxadiazol-3-yl)-7-(4-methyl-piperazin-1-yl)-1H-quinolin-4-one]: the half-inhibitory concentration (IC50) was more than 10 µM.

`CN1CCN(c2cc3c(cc2F)c(=O)c(-c2noc(Cc4ccc(F)cc4)n2)cn3Cc2ccc(F)cc2F)CC1` [Compound 44, 1-(2,4-difluoro-benzyl)-6-fluoro-3-[5-(4-fluoro-benzyl)-[1,2,4]oxadiazol-3-yl]-7-(4-methyl-piperazin-1-yl)-1H-quinolin-4-one]: the IC50 was less than 2 µM.

As for `CCCCCc1nc(-c2cn(Cc3ccc(C(F)(F)F)cc3F)c3cc(N4CCN(C)CC4)c(F)cc3c2=O)no1` [Compound 40, 6-fluoro-1-(2-fluoro-4-trifluoromethyl-benzyl)-7-(4-methyl-piperazin-1-yl)-3-(5-pentyl-[1,2,4]oxadiazol-3-yl)-1H-quinolin-4-one], the half-inhibitory concentration (IC50) is less than 2 µM.

In the case of `CC(C)(c1ccccc1)c1noc(-c2cn(Cc3ccc(C(F)(F)F)cc3)c3cc(N4CCOCC4)c(F)cc3c2=O)n1` [Compound 171, 6-fluoro-7-morpholino-3-(3-(2-phenylpropan-2-yl)-1,2,4-oxadiazol-5-yl)-1-(4-(trifluoromethyl)benzyl)quinolin-4(1H)-one], the IC50 was more than 10 µM.

As for `O=c1c(-c2noc(Cc3ccccc3)n2)cn(Cc2ccc(C(F)(F)F)cc2)c2cc(NCCN3CCOCC3)c(F)cc12` [Compound 72, 3-(5-benzyl-[1,2,4]oxadiazol-3-yl)-6-fluoro-7-(2-morpholin-4-yl-ethylamino)-1-(4-trifluoromethyl-benzyl)-1H-quinolin-4-one], the IC50 was less than 2 µM.

Turning to `Cc1cccc(Cc2nc(-c3cn(CC4CCCCC4)c4cc(N5CCN(C)CC5)c(F)cc4c3=O)no2)c1` [Compound 19, 1-cyclohexylmethyl-6-fluoro-3-[5-(3-methyl-benzyl)-[1,2,4]oxadiazol-3-yl]-7-(4-methyl-piperazin-1-yl)-1H-quinolin-4-one], the IC50 was less than 10 µM.

Consider `O=c1c(-c2noc(Cc3ccccc3)n2)cn(Cc2ccc(C(F)(F)F)cc2F)c2ccccc12` [Compound 94, 3-(5-benzyl-[1,2,4]oxadiazol-3-yl)-1-(2-fluoro-4-trifluoromethyl-benzyl)-1H-quinolin-4-one], for which the IC50 is more than 10 µM.

Regarding `CN1CCN(c2cc3c(cc2F)c(=O)c(-c2noc(Cc4ccccc4)n2)cn3CCc2ccccc2)CC1` [Compound 79, 3-(5-benzyl-[1,2,4]oxadiazol-3-yl)-6-fluoro-7-(4-methyl-piperazin-1-yl)-1-phenethyl-1H-quinolin-4-one], the IC50 was more than 10 µM.
